Structures can show the parent of a compound that is named as a salt. One block for each molecule: values may come before it.
Columns and labels:
[1] = Bulk density (loose and tapped) of CI-1027 lots; settings: for Bulk Density Loose / Bulk Density Tapped: per lot
[2] = system: Lp(a) and other lipoprotein parameters; assay: Effects on Lp(a) and other lipoprotein parameters, oral gavage for 2 weeks, monkeys; format: in vivo, Cynomolgus macaque monkeys
Description: (§1) The effects of CI-1027 of Formula II, Crystalline Form 1, on Lp(a) and other lipoprotein parameters in two models of elevated Lp(a) were determined by the following in vivo assays
(§2) Cynomolgus macaque monkeys and Lp(a) transgenic mice are dosed with CI-1027 at 3, 10, 30, 100, or 300 mg/kg for 2 weeks by oral gavage. […] In the transgenic mouse study, female mice were allocated into five groups with equivalent Lp(a) levels, and dosed by oral gavage with either vehicle alone or vehicle plus CI-1027 (3, 10, 30, and 100 mg/kg/day). Blood is sampled weekly (2 weeks prior to treatment, 2 weeks on treatment).

[3] = system: Lp(a) and other lipoprotein parameters; assay: Effects on Lp(a) and other lipoprotein parameters, oral gavage, transgenic mouse study; format: in vivo, Lp(a) transgenic mice; parameters: maximum decrease in total plasma cholesterol: dose or concentration left out as unconfirmed
Description: as §1, §2

[4] = Pharmacokinetics of CI-1027 in rat; format: in vivo
[5] = Pharmacokinetics of CI-1027 in dog; format: in vivo
[6] = Pharmacokinetics of CI-1027 in monkey; format: in vivo
[7] = Pharmacokinetics of CI-1027, species not stated; format: in vivo
[8] = system: plasma proteins; assay: In vitro binding to plasma proteins; format: in vitro ADME
[9] = system: rat hepatocytes; assay: In vitro metabolism in rat hepatocytes using radiolabeled compound; format: in vitro ADME
[10] = system: dog hepatocytes; assay: In vitro metabolism in dog hepatocytes using radiolabeled compound; format: in vitro ADME
[11] = system: monkey hepatocytes; assay: In vitro metabolism in monkey hepatocytes using radiolabeled compound; format: in vitro ADME
[12] = Mean recovery of 14C dose in excreta, intact and bile-fistula cannulated rats; format: in vivo, rat; settings: 10 mg/kg
[13] = Mean recovery of 14C dose in excreta, intact and bile-fistula cannulated monkeys; format: in vivo, monkey; settings: 10 mg/kg
[14] = in vivo
Description: Metabolite profiling is performed by HPLC with radiometric detection and metabolites arc identified by LC/RAM/MS/MS.

[15] = Observed electrostatic charge retention of bulk product; format: physicochemical; settings: compared with amorphous product / salts dried without humidification
Description: Additional analysis on the post-humidification dried dialkylcarboxylic acid ether monocalcium salt (II) is indicative of the formation of a salt which is associated with between about 0.1 and about 1 molar equivalent of water per equivalent of dialkylcarboxylic acid ether calcium salt (II), as shorn in FIGS. 1 and 15, for example.

[16] = Salt form and hygroscopic status: comparison of salts of 72953; format: physicochemical; settings: after complete drying
Description: Following the general procedure of Example 1, 72953 was reacted with sodium hydroxide, potassium hydroxide, and acetylcholine in stoichiometric ratios of 1:1 per dialkanoic acid molecule, and 2:1 per dialkanoic acid molecule. The properties of the solids thus prepared, following complete drying, were compared to the calcium salt (CI-1027) from Example 1.

[17] = in vivo, other: intravenous (IV) and per orals (PO), intravenous (IV) and per orals (PO), read-out: apparent elimination half-life

Molecule: CC(C)(CCCCOCCCCC(C)(C)C(=O)[O-])C(=O)[O-].[Ca+2] [listing 1 of 2 here]
Bulk Density Loose [1]: 0.336 g/mL
Bulk Density Tapped [1]: 0.439 g/mL

Molecule: CC(C)(CCCCOCCCCC(C)(C)C(=O)[O-])C(=O)[O-].[Ca+2] [listing 2 of 2 here]
bulk density, average ([1]; amorphous form): about 0.3 gm/mL

Molecule: 6-(5-carboxy-5-methyl-hexyloxy)-2,2-dimethylhexanoic acid monocalcium salt hydrate, Crystalline Form 1 [Example 1]
bulk density following tapping, average ([1]; highly crystalline salt after humidification process): about 0.4 g/mL

Molecule: CC(C)(CCCCOCCCCC(C)(C)C(=O)[O-])C(=O)[O-].[Ca+2] [CD-3221A]
Bulk Density Loose [1]: 0.372 g/mL
Bulk Density Tapped [1]: 0.521 g/mL

Molecule: CC(C)(CCCCOCCCCC(C)(C)C(=O)O)C(=O)O [Example 1, 6-(5-carboxy-5-methyl-hexyloxy)-2,2-dimethylhexanoic acid monocalcium salt hydrate, Crystalline Form 1]
electrostatic character of bulk product ([15]; listed as CI-1027 hydrate Crystalline Form 1): less electrostatic than the amorphous form
electrostatic character of bulk product ([15]; listed as Crystal Form 1): less capable of retaining an electrostatic charge
Physical Properties of Solid (hygroscopic status) [16]: None to Slight Hygroscopic

Molecule: CC(C)(CCCCOCCCCC(C)(C)C(=O)O)C(=O)O [Example 12, 6-(5-carboxy-5-methyl-hexyloxy)-2,2-dimethylhexanoic acid monocalcium salt. Crystalline Form 2]
electrostatic character of bulk product ([15]; listed as Crystal Form 2, monocalcium salt): less capable of retaining an electrostatic charge

Molecule: CC(C)(CCCCOCCCCC(C)(C)C(=O)[O-])C(=O)[O-].C[N+](C)(C)CCO.C[N+](C)(C)CCO [di-choline]
Physical Form [16]: Oil

Molecule: CC(C)(CCCCOCCCCC(C)(C)C(=O)[O-])C(=O)[O-].[K+].[K+] [di-potassium]
Physical Form [16]: Solid
Physical Properties of Solid (hygroscopic status) [16]: Very Hygroscopic

Molecule: CC(C)(CCCCOCCCCC(C)(C)C(=O)[O-])C(=O)[O-].[Na+].[Na+] [di-sodium]
Physical Form [16]: Solid
Physical Properties of Solid (hygroscopic status) [16]: Very Hygroscopic

Molecule: CC(C)(CCCCOCCCCC(C)(C)C(=O)O)C(=O)[O-].C[N+](C)(C)CCO [mono-choline]
Physical Form [16]: Oil

Second part, led by results:

Bulk Density Loose [1]: 0.280 g/mL
Bulk Density Tapped [1]: 0.315 g/mL
Molecule: CC(C)(CCCCOCCCCC(C)(C)C(=O)[O-])C(=O)[O-].[Ca+2] [CD-3055]

Bulk Density Loose [1]: 0.234 g/mL
Bulk Density Tapped [1]: 0.337 g/mL
Molecule: CC(C)(CCCCOCCCCC(C)(C)C(=O)[O-])C(=O)[O-].[Ca+2] [CD-3082]

Bulk Density Loose [1]: 0.215 g/mL
Bulk Density Tapped [1]: 0.270 g/mL
Molecule: CC(C)(CCCCOCCCCC(C)(C)C(=O)[O-])C(=O)[O-].[Ca+2] [CD-3102]

Bulk Density Loose [1]: 0.343 g/mL
Bulk Density Tapped [1]: 0.484 g/mL
Molecule: CC(C)(CCCCOCCCCC(C)(C)C(=O)[O-])C(=O)[O-].[Ca+2] [CD-3103]

Bulk Density Loose [1]: 0.218 g/mL
Bulk Density Tapped [1]: 0.264 g/mL
Molecule: CC(C)(CCCCOCCCCC(C)(C)C(=O)[O-])C(=O)[O-].[Ca+2] [CD-3111]

Bulk Density Loose [1]: 0.242 g/mL
Bulk Density Tapped [1]: 0.379 g/mL
Molecule: CC(C)(CCCCOCCCCC(C)(C)C(=O)[O-])C(=O)[O-].[Ca+2] [CD-3135]

Bulk Density Loose [1]: 0.235 g/mL
Bulk Density Tapped [1]: 0.300 g/mL
Molecule: CC(C)(CCCCOCCCCC(C)(C)C(=O)[O-])C(=O)[O-].[Ca+2] [CD-3243]

absorption [4]: rapidly absorbed
half-life [4, 17]: 5 to 7 h
absorption [5]: rapidly absorbed
half-life [5, 17]: 17 to 31 h
absorption [6]: rapidly absorbed
half-life [6, 17]: 9 to 15 h
Oral bioavailability [7]: appeared to be high
linearity of pharmacokinetics [7]: nonlinear
In vitro binding to plasma proteins [8]: species and concentration dependent
primary binding protein [8]: Albumin
Mean recovery in bile ([12]; Fistula Rat): 87.5 percent ^14C dose
Mean recovery in feces ([12]; Fistula Rat): 0.72 percent ^14C dose
Mean recovery in urine ([12]; Fistula Rat): 10.5 percent ^14C dose
Mean total recovery ([12]; Fistula Rat): 98.7 percent ^14C dose
Mean recovery in feces ([12]; Intact Rat): 56.9 percent ^14C dose
Mean recovery in urine ([12]; Intact Rat): 37.0 percent ^14C dose
Mean total recovery ([12]; Intact Rat): 93.9 percent ^14C dose
Mean recovery in bile ([13]; Fistula Monkey): 42.0 percent ^14C dose
Mean recovery in feces ([13]; Fistula Monkey): 3.82 percent ^14C dose
Mean recovery in urine ([13]; Fistula Monkey): 62.2 percent ^14C dose
Mean total recovery ([13]; Fistula Monkey): 108 percent ^14C dose
Mean recovery in feces ([13]; Monkey (intact)): 17.3 percent ^14C dose
Mean recovery in urine ([13]; Monkey (intact)): 78.1 percent ^14C dose
Mean total recovery ([13]; Monkey (intact)): 95.4 percent ^14C dose
metabolite detected in bile and urine [14]: acyl-glucuronide is detected
share of plasma radioactivity that was unchanged drug [14]: ~100%
Molecule: CC(C)(CCCCOCCCCC(C)(C)C(=O)[O-])C(=O)[O-].[Ca+2] [CI-1027, 6-(5-carboxy-5-methyl-hexyloxy)-2,2-dimethylhexanoic acid monocalcium salt (1:1)]
Lp(a) lowering ([2]; 3 mg/kg/day): −9%
Lp(a) lowering ([2]; 10 mg/kg/day): −23%
Lp(a) lowering ([2]; 30 mg/kg/day): −64%
Lp(a) lowering ([2]; 100 mg/kg/day): −68%
Lp(a) lowering ([2]; 300 mg/kg/day): −87%
HDL cholesterol ([2]; 3-300 mg/kg): decreased
total plasma cholesterol ([2]; 3-300 mg/kg): decreased
decrease in plasma Lp(a) compared to mice dosed with vehicle alone ([3]; female mice, 3 mg/kg/day oral gavage, after 1 week): −15%
decrease in plasma Lp(a) compared to mice dosed with vehicle alone ([3]; female mice, 10 mg/kg/day oral gavage, after 1 week): −41%
decrease in plasma Lp(a) compared to mice dosed with vehicle alone ([3]; female mice, 30 mg/kg/day oral gavage, after 1 week): −54%
decrease in plasma Lp(a) compared to mice dosed with vehicle alone ([3]; female mice, 100 mg/kg/day oral gavage, after 1 week): −61%
HDL cholesterol (lipoprotein profiles by HPLC) ([3]; female mice, after 1 week): remained unchanged
LDL cholesterol (lipoprotein profiles by HPLC) ([3]; female mice, after 1 week): significant decreases
decrease in plasma apoB ([3]; female mice, after 1 week): up to 30%
maximum decrease in total plasma cholesterol ([3]; female mice, after 1 week): 32%
ratio of HDL cholesterol to VLDL+LDL cholesterol ([3]; with treatment, control value 0.39): 0.65
enterohepatic recirculation [7]: seemed to undergo enterohepatic recirculation
14C peaks found in hepatocyte incubation [9]: two major ^14C peaks, intact drug, and a glucuronide conjugate
14C peaks found in hepatocyte incubation [10]: two major ^14C peaks, intact drug, and a glucuronide conjugate
14C peaks found in hepatocyte incubation [11]: two major ^14C peaks, intact drug, and a glucuronide conjugate
